Like-named read-outs stand apart in the source and are kept apart here.
Assays:
Assay type in all cases: in vivo
[1] = tested on: barnyardgrass (Echinochloa crus-galli); experiment: Test A pre-/postemergence plant response; details: for pest or weed control at 125 g/ha / pest or weed control at 500 g/ha: Echinochloa crus-galli, 240 h, read-out: Plant response rating, Barnyardgrass
Procedure, shortened: (§1)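 Ratings run 0–100 (100 = complete control), assigned visually against untreated controls roughly 10 days after treatment in a greenhouse. Compounds, formulated in non-phytotoxic solvent containing surfactant, were applied as a soil-directed preemergence spray and concurrently postemergence to one- to two-leaf plants 2–10 cm tall.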

corn (Zea mays) = experiment: Test A pre-/postemergence plant response; details: for Corn plant response rating (crop injury, 0 = no effect, 100 = complete kill) at 125 g/ha / Corn plant response rating (crop injury, 0 = no effect, 100 = complete kill) at 500 g/ha: Zea mays, 240 h
Procedure, shortened: as §1

[2] = tested on: giant foxtail (Setaria faberi); experiment: Test A pre-/postemergence plant response; details: for pest or weed control at 125 g/ha / pest or weed control at 500 g/ha: Setaria faberi, 240 h, read-out: Plant response rating, Foxtail, Giant
Procedure, shortened: as §1

[3] = tested on: large crabgrass (Digitaria sanguinalis); experiment: Test A pre-/postemergence plant response; details: for pest or weed control at 125 g/ha / pest or weed control at 500 g/ha: Digitaria sanguinalis, 240 h, read-out: Plant response rating, Crabgrass, Large
Procedure, shortened: as §1

[4] = tested on: morningglory (Ipomoea coccinea); experiment: Test A pre-/postemergence plant response
Procedure, shortened: as §1

[5] = tested on: pigweed (Amaranthus retroflexus); experiment: Test A pre-/postemergence plant response; details: for pest or weed control at 125 g/ha / pest or weed control at 500 g/ha: Amaranthus retroflexus, 240 h, read-out: Plant response rating, Pigweed
Procedure, shortened: as §1

[6] = tested on: velvetleaf (Abutilon theophrasti); experiment: Test A pre-/postemergence plant response
Procedure, shortened: as §1

[7] = tested on: wheat (Triticum aestivum); experiment: Test A pre-/postemergence plant response; details: for plant injury at 125 g/ha / plant injury at 500 g/ha: Triticum aestivum, 240 h, read-out: Plant response rating, Wheat
Procedure, shortened: as §1

[8] = tested on: eastern black (E.B.) nightshade (Solanum ptycanthum); experiment: Test B pre-/postemergence plant response; details: Preemergence; for Nightshade, E. B. plant response rating: 8 g ai/ha
Procedure, shortened: (§2)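 Visual scoring from 0 (no effect) to 100 (complete control) against untreated controls was done 13 to 15 days after greenhouse treatment. Chemicals were formulated in a surfactant-containing non-phytotoxic solvent and applied to soil preemergence or to 1- to 4-leaf (2-18 cm) plants postemergence.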

[9] = tested on: green foxtail (Setaria viridis); experiment: Test B pre-/postemergence plant response; details: for Foxtail, Green plant response rating: 8 g ai/ha
Procedure, shortened: as §2

[10] = tested on: barnyardgrass (Echinochloa crus-galli); experiment: Test B flooded paddy test plant response
Procedure, shortened: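 Step one: raise plants to 2 leaves. Step two: flood pots 3 cm over the soil and apply compound into the water, keeping this depth. Step three: after 13–15 greenhouse days, score visually versus controls, 0–100, where 100 means complete control.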

[11] = Postemergence, 125 g ai/ha, 0 to 100 scale, 0 no effect, 100 complete control
[12] = Postemergence, 500 g ai/ha, 0 to 100 scale, 0 no effect, 100 complete control
[13] = Preemergence, 125 g ai/ha, 0 to 100 scale (0 no effect, 100 complete control)
[14] = Preemergence, 500 g ai/ha, 0 to 100 scale (0 no effect, 100 complete control)
[15] = post-emergence, Postemergence, 125 g ai/ha, 0 to 100 scale, 0 no effect, 100 complete control
[16] = post-emergence, Postemergence, 500 g ai/ha, 0 to 100 scale, 0 no effect, 100 complete control
[17] = pre-emergence, Preemergence, 125 g ai/ha, 0 to 100 scale (0 no effect, 100 complete control)
[18] = pre-emergence, Preemergence, 500 g ai/ha, 0 to 100 scale (0 no effect, 100 complete control)

Cn1ncc(O)c(-c2nn(-c3ccc(Cl)cc3)cc2Cl)c1=O [Compound 28]
65: Plant response rating, Foxtail, Green ([9]; Postemergence, 16 g ai/ha, scale 0 to 100)
90: Plant response rating, Corn (corn (Zea mays); [12]) | Plant response rating, Corn (corn (Zea mays); [14]) | Plant response rating, Foxtail, Giant [2, 11] | Plant response rating, Foxtail, Giant [2, 12] | Plant response rating, Crabgrass, Large [3, 12] | Plant response rating, Crabgrass, Large [3, 13]
20: Plant response rating, Velvetleaf [6, 14]
50: Plant response rating, Wheat [7, 11]
30: Plant response rating, Morningglory [4, 12] | Foxtail, Green plant response rating ([9]; Preemergence, scale 0 to 100) | Plant response rating, Barnyardgrass ([10]; Flood (flooded paddy test), 250 g ai/ha, scale 0 to 100, 0 no effect, 100 complete control)
70: Plant response rating, Wheat [7, 12] | Plant response rating, Wheat [7, 13]
100: Plant response rating, Barnyardgrass [1, 12] | Plant response rating, Barnyardgrass [1, 13] | Plant response rating, Barnyardgrass [1, 14] | Plant response rating, Foxtail, Giant [2, 13] | Plant response rating, Foxtail, Giant [2, 14] | Plant response rating, Crabgrass, Large [3, 14] | Plant response rating, Wheat [7, 14] | Plant response rating, Foxtail, Green ([9]; Postemergence, 62 g ai/ha, scale 0 to 100, 0 no effect, 100 complete control) | Plant response rating, Foxtail, Green ([9]; Preemergence, 16 g ai/ha, scale 0 to 100 (0 no effect, 100 complete control)) | Plant response rating, Foxtail, Green ([9]; Preemergence, 31 g ai/ha, 0 to 100 scale, 0 no effect, 100 complete control) | Plant response rating, Foxtail, Green ([9]; Preemergence, 62 g ai/ha, scale 0 to 100)
98: Plant response rating, Foxtail, Green ([9]; Postemergence, 31 g ai/ha, scale 0 to 100, 0 no effect, 100 complete control)
40: Plant response rating, Corn (corn (Zea mays); [11])
0: Plant response rating, Morningglory [4, 11] | Plant response rating, Morningglory [4, 14] | Plant response rating, Pigweed [5, 11] | Plant response rating, Pigweed [5, 12] | Plant response rating, Pigweed [5, 13] | Plant response rating, Pigweed [5, 14] | Plant response rating, Velvetleaf [6, 11] | Plant response rating, Velvetleaf [6, 12] | Plant response rating, Velvetleaf [6, 13] | Plant response rating, Nightshade, E. B. ([8]; 16 g ai/ha, scale 0 to 100 (0 no effect, 100 complete control)) | Plant response rating, Nightshade, E. B. ([8]; 31 g ai/ha, 0 to 100 scale, 0 no effect, 100 complete control) | Plant response rating, Nightshade, E. B. ([8]; 62 g ai/ha, scale 0 to 100) | Nightshade, E. B. plant response rating ([8]; scale 0 to 100) | Plant response rating, Barnyardgrass ([10]; Flood (flooded paddy test), 62 g ai/ha, scale 0 to 100, 0 no effect, 100 complete control) | Plant response rating, Barnyardgrass ([10]; Flood (flooded paddy test), 125 g ai/ha, scale 0 to 100, 0 no effect, 100 complete control) | Plant response rating, Barnyardgrass ([10]; Flood, 31 g ai/ha, scale 0 to 100)
80: Plant response rating, Corn (corn (Zea mays); [13]) | Plant response rating, Crabgrass, Large [3, 11]
60: Plant response rating, Barnyardgrass [1, 11] | Foxtail, Green plant response rating ([9]; postemergence, 0-100 scale)

Cc1cn(-c2ccc(Cl)cc2)nc1-c1c(O)cnn(C)c1=O [Compound 30, 4-[1-(4-chlorophenyl)-4-methyl-1H-pyrazol-3-yl]-5-hydroxy-2-methyl-3(2H)-pyridazinone]
0: Plant response rating, Morningglory [4, 11] | Plant response rating, Morningglory [4, 12] | Plant response rating, Morningglory [4, 13] | Plant response rating, Morningglory [4, 14] | Plant response rating, Velvetleaf [6, 11] | Plant response rating, Velvetleaf [6, 12] | Plant response rating, Velvetleaf [6, 13] | Plant response rating, Velvetleaf [6, 14] | Nightshade, E. B. plant response rating ([8]; scale 0 to 100) | Foxtail, Green plant response rating ([9]; Preemergence, scale 0 to 100)
50%: pest or weed control at 125 g/ha [1, 15] | plant injury at 500 g/ha [7, 16]
60%: pest or weed control at 125 g/ha [3, 15]
70%: Corn plant response rating (crop injury, 0 = no effect, 100 = complete kill) at 500 g/ha (corn (Zea mays); [16]) | Corn plant response rating (crop injury, 0 = no effect, 100 = complete kill) at 500 g/ha (corn (Zea mays); [18])
0%: Corn plant response rating (crop injury, 0 = no effect, 100 = complete kill) at 125 g/ha (corn (Zea mays); [15]) | Corn plant response rating (crop injury, 0 = no effect, 100 = complete kill) at 125 g/ha (corn (Zea mays); [17]) | pest or weed control at 125 g/ha [5, 15] | pest or weed control at 500 g/ha [5, 16] | pest or weed control at 125 g/ha [5, 17] | pest or weed control at 500 g/ha [5, 18] | pest or weed control at 16 g/ha ([8]; Solanum, pre-emergence, 16 g ai/ha, scale 0 to 100 (0 no effect, 100 complete control), read-out: Plant response rating, Nightshade, E. B.) | pest or weed control at 31 g/ha ([8]; Solanum, pre-emergence, 31 g ai/ha, 0 to 100 scale, 0 no effect, 100 complete control, read-out: Plant response rating, Nightshade, E. B.) | pest or weed control at 62 g/ha ([8]; Solanum, pre-emergence, 62 g ai/ha, scale 0 to 100, read-out: Plant response rating, Nightshade, E. B.) | pest or weed control at 16 g/ha ([9]; Setaria viridis, pre-emergence, Preemergence, 16 g ai/ha, scale 0 to 100 (0 no effect, 100 complete control), read-out: Plant response rating, Foxtail, Green) | pest or weed control at 62 g/ha ([10]; Echinochloa crus-galli, Flood (flooded paddy test), 62 g ai/ha, scale 0 to 100, 0 no effect, 100 complete control, read-out: Plant response rating, Barnyardgrass) | pest or weed control at 125 g/ha ([10]; Echinochloa crus-galli, Flood (flooded paddy test), 125 g ai/ha, scale 0 to 100, 0 no effect, 100 complete control, read-out: Plant response rating, Barnyardgrass) | pest or weed control at 250 g/ha ([10]; Echinochloa crus-galli, Flood (flooded paddy test), 250 g ai/ha, scale 0 to 100, 0 no effect, 100 complete control, read-out: Plant response rating, Barnyardgrass) | pest or weed control at 31 g/ha ([10]; Echinochloa crus-galli, Flood, 31 g ai/ha, scale 0 to 100, read-out: Plant response rating, Barnyardgrass)
40%: plant injury at 125 g/ha [7, 15] | plant injury at 125 g/ha [7, 17]
80%: pest or weed control at 125 g/ha [2, 15]
90%: pest or weed control at 500 g/ha [1, 16] | pest or weed control at 500 g/ha [2, 16] | pest or weed control at 500 g/ha [3, 16] | plant injury at 500 g/ha [7, 18]
100%: pest or weed control at 125 g/ha [1, 17] | pest or weed control at 500 g/ha [1, 18] | pest or weed control at 125 g/ha [2, 17] | pest or weed control at 500 g/ha [2, 18] | pest or weed control at 125 g/ha [3, 17] | pest or weed control at 500 g/ha [3, 18] | pest or weed control at 31 g/ha ([9]; Setaria viridis, pre-emergence, Preemergence, 31 g ai/ha, 0 to 100 scale, 0 no effect, 100 complete control, read-out: Plant response rating, Foxtail, Green) | pest or weed control at 62 g/ha ([9]; Setaria viridis, pre-emergence, Preemergence, 62 g ai/ha, scale 0 to 100, read-out: Plant response rating, Foxtail, Green)

Reference: patent US20100267561A1, “HERBICIDAL PYRIDAZINONE DERIVATIVES” (priority 2007, published 2010)
